# Where “and” joins values, the source holds several entries; their conditions need not be identical. Identical values can stand only once. Inconclusive results are not listed. Calls of active or inactive are those of the source.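 How the source made its calls: active means compounds whose fitted curve reaches 40% MLANA inhibition below twice the top dose tried; inconclusive means flat curve with 30 to 70% opposite effect, or poor fit; inactive means the rest.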
# Key:
# [1] = tested on: SK-MEL-5 MLANA mRNA qPCR, delta delta Ct, overnight; assay: inhibitors of MLANA mRNA expression, dose response, cell-based, RT-qPCR, SK-MEL-5, dry powder (AID 651795)
# [2] = as above; conditions: SK-MEL-5 MLANA mRNA qPCR, delta delta Ct, overnight; at 35 µM (top of the series)
SMILES,AC40 [1],MLANA expression inhibition [2]
NC1=C(NS(=O)(=O)c2cccs2)C(=O)c2ccccc2C1=O,2.27 µM,
Cc1nc2ccccc2n1/N=C/c1ccc([N+](=O)[O-])s1,2.75 µM,
O=C1C(NS(=O)(=O)c2cccs2)=C(c2ccccc2)C(=O)c2ccccc21,10.8 µM,
CCN1CCN(C2=C(NS(=O)(=O)c3ccc(Br)cc3)C(=O)c3ccccc3C2=O)CC1,6.43 µM,
O=C1C(Nc2ccc(Br)cc2)=C(N2CCCCC2)C(=O)c2ccccc21,14.3 µM,
C=CCNC1=C(Cl)C(=O)c2ccccc2C1=O,0.764 µM,
COC1=C(NS(=O)(=O)c2cccs2)C(=O)c2ccccc2C1=O,10.5 µM,
NC1=C(NS(=O)(=O)c2ccc(Br)s2)C(=O)c2ccccc2C1=O,,31.6% (inactive)
NS(=O)(=O)c1ccc(NC2=CC(=O)c3ccccc3C2=O)cc1,0.0824 µM,
CCN1CCN(C2=C(NC(=O)c3ccccc3)C(=O)c3ccccc3C2=O)CC1,1.15 µM,
CN1CCN(C2=C(NS(=O)(=O)c3ccc(Br)s3)C(=O)c3ccccc3C2=O)CC1,2.93 µM,
COC1=C(Nc2ccccc2)C(=O)c2ccccc2C1=O,0.492 µM,
NC1=C(NC(=O)c2ccccc2)C(=O)c2ccccc2C1=O,1.54 µM,
O=C1C=C(NS(=O)(=O)c2ccc(Br)cc2)C(=O)c2ccccc21,2.44 µM,
COC1=C(NS(=O)(=O)c2ccc(Br)cc2)C(=O)c2ccccc2C1=O,9.12 µM,
O=C1C(Nc2ccc(Cl)cc2)=C(N2CCCC2)C(=O)c2ccccc21,8.64 µM,

SMILES,AC40 [1],MLANA expression inhibition [2]
O=C1C(Nc2ccc(F)cc2)=C(N2CCCCC2)C(=O)c2ccccc21,9.24 µM,
O=C1C(Nc2ccccc2)=C(c2ccccc2)C(=O)c2ccccc21,7.78 µM,
O=C(NC1=C(Cl)C(=O)c2ccccc2C1=O)c1ccccc1,0.227 µM,
O=C1C=C(Nc2ccc([N+](=O)[O-])c(C(F)(F)F)c2)C(=O)c2ccccc21,0.119 µM,
COc1ccc(NC2=C(N3CCCCC3)C(=O)c3ccccc3C2=O)cc1,11 µM,
O=C1C=C(Nc2ccccc2)C(=O)c2ccccc21,0.337 µM and 0.389 µM,
Cc1ccc(NC2=CC(=O)c3ccccc3C2=O)cc1,0.745 µM,
CN1CCN(C2=C(Nc3ccc(F)cc3F)C(=O)c3ccccc3C2=O)CC1,3.45 µM,
CC(C)N1CCN(C2=C(Nc3ccc(F)cc3)C(=O)c3ccccc3C2=O)CC1,5.31 µM,
CC(C)N1CCN(C2=C(Nc3ccc(F)cc3F)C(=O)c3ccccc3C2=O)CC1,3.47 µM,
O=C1C=C(NS(=O)(=O)c2cccs2)C(=O)c2ccccc21,1.98 µM,
NC1=C(NS(=O)(=O)c2ccccc2)C(=O)c2ccccc2C1=O,4.5 µM,
NC1=CC(=O)c2ccccc2C1=O,0.813 µM,
O=C1C=C(NS(=O)(=O)c2ccccc2)C(=O)c2ccccc21,1.36 µM,
CCN1CCN(C2=C(Nc3ccc(F)cc3F)C(=O)c3ccccc3C2=O)CC1,2.48 µM,
